For one data set, the system named is MCF-7/R7. The experiment in a line: SRB drug sensitivity, MCF-7 with introduced ABCG2 of the present invention. Format: cell-based, human. Particulars: MCF-7/R7 (ABCG2 of the present invention), FIG. 6. The protocol: (§1) The full length human ABCG2 cDNA of the present invention prepared in Example 5 was inserted into a plasmid for expression in mammalian cells, followed by transfection of human breast cancer cells, MCF-7 cells, with the ABCG2 expression plasmid using Effectene Transfection Reagent (QIAGEN). Likewise, human breast cancer cells, MCF-7 cells, were transfected with a plasmid including the ABCG2-482T cDNA prepared in Example 10. The experiments were carried out according to an attached procedural manual. As a control experiment, the MCF-7 cells were also transfected with vector alone. The three experiments were conducted simultaneously. Two days from the transfection, the original media were replaced with selective media containing 900 μg/ml of Geneticin (GIBCO BRL). By culture over a prolonged term under this condition, stable transfectant clones with introduced plasmid were selected. Two to three weeks from the transfection, emerging colonies were picked and the expression of ABCG2 in the cells was examined by Northern Blot analysis. Northern Blot analysis was performed as described in Example 4: 8 μg of total RNA prepared from each clone using RNeasy mini kit (QIAGEN) was separated on a formaldehyde denatured agarose gel, followed by analysis using the human ABCG2 cDNA fragment of the present invention as a probe.
(§2) The drug sensitivity of the stable transfectant clones which were established from MCF-7 cells with introduced ABCG2- or ABCG2-482T-expression plasmid, was measured using SRB method as described in Example 2 and the sensitivity of each transfectant to drugs was shown as a relative resistance to the cells with introduced vector alone (FIG. 6).

In a further data set the test system is MCF-7/T8. The experiment in a line: SRB drug sensitivity, MCF-7 with introduced ABCG2-482T. Format: cell-based, human. Conditions: MCF-7/T8 (ABCG2-482T). The protocol:
as §1, §2

Another data set concerns HCT116/NR1. Put plainly: SRB drug sensitivity, Compound-A-resistant HCT116/NR1. Format: cell-based, human. Conditions: for IC50: Homo sapiens, HCT-116, HCT116/NR1, SRB, 72 hours with agent; for RR: Relative Resistance: IC50 HCT116/NR1 divided by IC50 HCT116. The text has this:
An emerging colony was isolated and designated as HCT116/NR1.

Another data set concerns LY/NR2. The experiment in a line: SRB drug sensitivity, Compound-A-resistant LY/NR2. Format: cell-based, mouse. Particulars: for RR: Relative Resistance: IC50 LY/NR2 divided by IC50 LY; for IC50: Mus musculus, LY/NR2, SRB, 72 hours with agent. The text has this: An emerging colony was isolated as described above and designated as LY/NR2.
A further data set relates to PC13. Put plainly: SRB drug sensitivity, PC-13 parental cells. Conditions: Homo sapiens, 72 hours with agent. Format: cell-based.
A further data set deals with LY/NR1. The experiment in a line: SRB drug sensitivity, Compound-A-resistant LY/NR1. Format: cell-based, mouse. Conditions: for RR: Relative Resistance: IC50 LY/NR1 divided by IC50 LY; for IC50: Mus musculus, LY/NR1, SRB, 72 hours with agent. The text has this: A colony that grew under these conditions was isolated using a cloning ring (Asahi Techno Glass Corporation) and designated as LY/NR1.

For another data set, the system named is LY. The experiment in a line: SRB drug sensitivity, LY parental fibroblasts. Format: cell-based. Conditions: Mus musculus, Fibroblast, 72 hours with agent.
In the next data set the test system is HeLa#7. Put plainly: SRB drug sensitivity, spontaneously resistant HeLa#7. Format: cell-based, human. Particulars: for IC50: Homo sapiens, HeLa#7, SRB, 72 hours with agent; for RR: Relative Resistance: IC50 HeLa#7 divided by IC50 HeLaS3.
The test system of another data set is HeLaS3. Put plainly: SRB drug sensitivity, HeLaS3 (Compound-A-sensitive). Format: cell-based. Particulars: Homo sapiens, HeLa S3, 72 hours with agent.
The next data set deals with PC13/NR13. Put plainly: SRB drug sensitivity, Compound-A-resistant PC-13/NR13. Conditions: for IC50: Homo sapiens, PC-13, PC13/NR13, SRB, 72 hours with agent; for RR: Relative Resistance: IC50 PC13/NR13 divided by IC50 PC13. Format: cell-based, human.
The next data set concerns HCT116. Put plainly: SRB drug sensitivity, HCT116 parental cells. Format: cell-based. Conditions: Homo sapiens, HCT-116, 72 hours with agent.
Data set [1] concerns PC-13 cell lines with introduced ABCG2. The experiment in a line: SRB drug sensitivity, PC-13 cell lines with introduced ABCG2 (stated jointly). Format: cell-based, human. Particulars: PC-13 cell lines with introduced ABCG2, versus vector alone. How it is done: (§3) Test cells in the logarithmic growth phase were dispensed into wells of 96-well plate at 1×10^3 cells/well. After subculture for 24 hours in a CO2 incubator, a serial diluted agent was added to each well. After further incubation for 72 hours, the cells were fixed with trichloroacetic acid (TCA) and the proteins in the cells were stained by 0.4% sulforhodamine B solution. The samples were eluted by 10 mM Tris-HCl for 1 hour, and each well was measured at 560 nm with a 450 nm reference, by a SPECTRAmax 250 plate reader (Molecular Devices Corp.).
(§4) PC-13 cells were transfected with the ABCG2 expression plasmids using Effectene Transfection Reagent (QIAGEN). The experiment was performed according to the attached procedural manual. As a control experiment, other PC-13 cells were transfected with vector alone without the ABCG2 sequence. The two experiments were conducted simultaneously. Two days after the transfection, the original media were replaced with selection media containing 0.2 mg/ml of Geneticin (GIBCO BRL). By culture for a long time under this condition, stable transfectant clones with the introduced plasmids were selected. Two weeks from the transfection, emerging colonies were picked and expression of ABCG2 in the cells was examined by Northern Blot analysis.

Data set [2] concerns ABCG2. The experiment in a line: SRB drug sensitivity, PC-13 transfected with ABCG2 (clone 2). Format: cell-based, human. Conditions: human; PC-13/ABCG2-2; average ± standard error of three independent experiments. How it is done: as §3, §4
Another data set deals with PC-13/Vector. Put plainly: SRB drug sensitivity, PC-13 transfected with vector alone. Format: cell-based. Conditions: Homo sapiens, average ± standard error of three independent experiments. How it is done:
as §3, §4

Data set [3] deals with ABCG2. The experiment in a line: SRB drug sensitivity, PC-13 transfected with ABCG2 (clone 3). Format: cell-based, human. Conditions: human; PC-13/ABCG2-3; average ± standard error of three independent experiments. The protocol: as §3, §4
The next data set has as its system PC-13/ABCG2-2. The experiment in a line: SRB drug sensitivity, PC-13 transfected with ABCG2 (clone 2). Conditions: IC50 PC-13/ABCG2-2 divided by IC50 of vector cells. Format: cell-based, human. The protocol:
as §3, §4

The subject of the next data set is PC-13/ABCG2-3. The experiment in a line: SRB drug sensitivity, PC-13 transfected with ABCG2 (clone 3). Conditions: IC50 PC-13/ABCG2-3 divided by IC50 of vector cells. Format: cell-based, human. How it is done:
as §3, §4

The values that follow come from patent publication US20070141619A1, “DRUG RESISTANCE-ASSOCIATED GENE AND USE THEREOF” (BANYU PHARMACEUTICAL CO., Ltd., priority 2000, published 2007).

Turning to `COc1cccc2c1C(=O)c1c(O)c3c(c(O)c1C2=O)C[C@@](O)(C(C)=O)C[C@@H]3O[C@H]1C[C@H](N)[C@H](O)[C@H](C)O1` [Daunorubicin], the entries for the “relative resistance to the cells with introduced vector alone” value in the data set on MCF-7/R7 and in the data set with MCF-7/T8 (FIG. 6) were “no resistance” and 5.1 fold, respectively.

Turning to `CC(=O)O[C@H]1C(=O)[C@@]2(C)[C@H]([C@H](OC(=O)c3ccccc3)[C@]3(O)C[C@H](OC(=O)[C@H](O)[C@@H](NC(=O)c4ccccc4)c4ccccc4)C(C)=C1C3(C)C)[C@]1(OC(C)=O)CO[C@@H]1C[C@@H]2O` [Paclitaxel], the IC50 (as a rule, the concentration that gives 50% inhibition) worked out at 2.1 nM with HCT116/NR1; 81 nM in the data set with LY/NR2; 2 nM with PC13; 57 nM in the data set on LY/NR1; 41 nM with LY; 4.2 nM in the data set on HeLa#7. Moreover, the IC50 in the data set on HeLaS3 turned out to be 1 nM; in the data set with PC13/NR13, 1.8 nM; in the data set with HCT116, 1.1 nM. Further, the “RR: Relative Resistance” value came out at 1.9 with HCT116/NR1; 2.0 with LY/NR2; 1.4 with LY/NR1; 4.2 in the data set on HeLa#7; 0.92 with PC13/NR13.

Take `CC[C@@]1(O)C(=O)OCc2c1cc1n(c2=O)Cc2cc3c(CN(C)C)c(O)ccc3nc2-1` [Topotecan]: in data set [1], the “resistance of cells in which ABCG2 was forcedly expressed” value (“resistance of cells” below) is on record as “did not display remarkable resistance”. Further, the IC50 in the data set with LY/NR2 is 2900 nM; in the data set on PC13 it was 75 nM; in the data set on LY/NR1 it was 250 nM; in the data set with PC-13/Vector it was 210 ± 40 nM; with LY, 69 nM; with HeLa#7 it was 360 nM. Also, the IC50 turned out to be 63 nM in the data set with HeLaS3, 1100 nM in the data set on PC13/NR13 and 34 nM in the data set on HCT116. Further, the IC50 at 72 h with ABCG2 [2] was found to be 190 ± 50 nM; in the data set on ABCG2 [3], 96 ± 22 nM.

On to `COc1cccc2c1C(=O)c1c(O)c3c(c(O)c1C2=O)C[C@@](O)(C(=O)CO)C[C@@H]3O[C@H]1C[C@H](N)[C@H](O)[C@H](C)O1` [Doxorubicin], for which the “resistance of cells” value in [1] is given as “not resistant”. Also, the IC50 in the data set on HCT116/NR1 was 59 nM; in the data set with LY/NR2, 190 nM; in the data set with PC13 it was 28 nM; with LY/NR1 it was 67 nM; in the data set on LY, 43 nM; in the data set on HeLa#7, 29 nM. The IC50 worked out at 35 nM with HeLaS3, 70 nM with PC13/NR13 and 25 nM in the data set with HCT116. Also, the “RR: Relative Resistance” value with HCT116/NR1 amounted to 2.3; with LY/NR2, 4.5; with LY/NR1, 1.6; with HeLa#7 it was 0.81; with PC13/NR13, 2.5. The “relative resistance to the cells with introduced vector alone” value is recorded as “no resistance” in the data set on MCF-7/R7; 9.6 fold in the data set with MCF-7/T8 (FIG. 6, listed as Adriamycin); “showed resistance” with MCF-7/T8 (FIG. 6, listed as adriamycin).

Consider `CC[C@@]1(O)C(=O)OCc2c1cc1n(c2=O)Cc2cc3ccccc3nc2-1` [Camptothecin], for which, in [1], the “resistance of cells” value is on record as “did not display remarkable resistance”. Also, the IC50 amounted to 17 nM in the data set with HCT116/NR1; 380 nM in the data set on LY/NR2; 38 nM in the data set with PC13; 58 nM in the data set on LY/NR1; 43 ± 11 nM with PC-13/Vector; 46 nM in the data set with LY. Further, the IC50 in the data set with HeLa#7 stood at 38 nM; in the data set on HeLaS3, 14 nM; with PC13/NR13 it was 29 nM; with HCT116, 9.4 nM. Also, the “RR: Relative Resistance” value is given as 1.8 in the data set on HCT116/NR1; 8.2 in the data set on LY/NR2; 1.3 in the data set with LY/NR1; 2.7 with HeLa#7; 0.76 with PC13/NR13. Besides, the “Rel. Res. (relative resistance)” value was 0.67 in the data set with PC-13/ABCG2-2 and 1.2 in the data set on PC-13/ABCG2-3. For the same compound, the IC50 at 72 h in the data set on ABCG2 [2] is 29 ± 5 nM; in the data set on ABCG2 [3], 52 ± 8 nM.

Take `CC[C@]1(O)C[C@H]2CN(CCc3c([nH]c4ccccc34)[C@@](C(=O)OC)(c3cc4c(cc3OC)N(C=O)[C@H]3[C@@](O)(C(=O)OC)[C@H](OC(C)=O)[C@]5(CC)C=CCN6CC[C@]43[C@@H]65)C2)C1` [Vincristine]: the IC50 is 9.3 nM in the data set with HCT116/NR1; 25 nM in the data set on LY/NR2; 13 nM in the data set on PC13; 11 nM in the data set with LY/NR1; 15 nM in the data set with LY; 6.9 nM in the data set with HeLa#7. The IC50 in the data set on HeLaS3 is 0.7 nM; in the data set on PC13/NR13, 7 nM; in the data set with HCT116, 2 nM. The “RR: Relative Resistance” value came out at 4.7 with HCT116/NR1; 1.7 in the data set with LY/NR2; 0.77 in the data set with LY/NR1; 9.9 in the data set with HeLa#7; 0.56 in the data set on PC13/NR13.

`COc1cc([C@@H]2c3cc4c(cc3[C@@H](O[C@@H]3O[C@@H]5CO[C@@H](C)O[C@H]5[C@H](O)[C@H]3O)[C@H]3COC(=O)[C@H]23)OCO4)cc(OC)c1O` [Etoposide]: the “resistance of cells” value in [1] is recorded as “did not display remarkable resistance”. The IC50 with HCT116/NR1 was found to be 3400 nM; with LY/NR2, 2000 nM; with PC13, 1200 nM; in the data set with LY/NR1, 520 nM; with PC-13/Vector, 1000 ± 290 nM; with LY, 280 nM. Also, the IC50 came out at 930 nM in the data set with HeLa#7, 1200 nM with HeLaS3, 3000 nM in the data set with PC13/NR13 and 1100 nM in the data set on HCT116. In addition, the “RR: Relative Resistance” value with HCT116/NR1 is reported as 3.1; with LY/NR2, 4.7; in the data set on LY/NR1 it was 2.1; in the data set on HeLa#7, 0.79; in the data set with PC13/NR13 it was 2.5. Besides, the “Rel. Res. (relative resistance)” value came to 0.46 in the data set with PC-13/ABCG2-2 and 1.1 in the data set on PC-13/ABCG2-3. In addition, the IC50 at 72 h amounted to 460 ± 75 nM with ABCG2 [2] and 1100 ± 330 nM in the data set on ABCG2 [3].
